From publication PMC9274004, “Deciphering the Molecular Interaction Between the Adhesion G Protein-Coupled Receptor ADGRV1 and its PDZ-Containing Regulator PDZD7” (Frontiers in Molecular Biosciences, 2022) come the findings set out here.

Where no end group is shown, it is not given here.

The target in the assay is T1, PDZD7 P1P2 (81-313) (Mus musculus, UniProt E9Q9W7).
T1 construct: PDZ2ext (206-313), P1P2 (81-313); GST (followed by TEV site) (N, cleaved yes); made in house; host or cells: E. coli BL21 DE3
As to the kind of experiment: Fluorescence titration of PDZ tandem P1P2. Format: binding, murine. The settings on record: fluorescence titration (Trp, ex 295 nm, em 346-349 nm); P1P2 2 µM in Phosphate Buffer pH 6.6 (50 mM); error from quality of fit. The procedure:
Fluorescence titrations were performed on a Jasco V-730 spectrometer using quartz cell 109.004F-QS (Hellma Analytics) with an optical path of 10 mm and with thick side to reduce the inner filter effect. PDZ1ext and P1P2 were prepared in Phosphate Buffer pH 6.6 (50 mM) at 6 and 2 µM respectively, while PDZ2ext was prepared in Tris HCl pH 7.5 (50 mM) at 5 µM. Variations in the quantum yield of fluorescence of tryptophans from the sample were monitored upon progressive addition of buffered ADGRV1pbm peptide. After peptide addition, the sample is homogenized by in-spectrometer magnet agitation for 30 s. The sample is left to rest for an additional 60 s before measurement. Excitation is set at 295 nm and fluorescence was measured at the maximum emission wavelength (346-349 nm) of the unbound form with a 5 nm bandwidth for both. Titration curves were fitted using the following formula: y = Fp∗p0+(Fx-Fp)∗0.5∗(R∗I0+(1-R)∗x + K-((R∗I0+(1-R)∗x + K)^2-4∗R∗(I0-x)∗x)^1/2), where p0 is the initial protein concentration, I0 the peptide stock concentration, R the p0/I0 ratio, x the volume of added peptide in µl, Fp the fluorescence of PDZ constructs, Fx the fluorescence of the complex, and K the Kd. […]
We monitored the interaction between PDZD7 constructs and a peptide (ADGRV1pbm) corresponding to the last 13 residues of ADGRV1, encompassing its PBM (sequence VELRRIPIADTHL-COOH; PBM underlined). […]

T1 sequence (E9Q9W7 81-313): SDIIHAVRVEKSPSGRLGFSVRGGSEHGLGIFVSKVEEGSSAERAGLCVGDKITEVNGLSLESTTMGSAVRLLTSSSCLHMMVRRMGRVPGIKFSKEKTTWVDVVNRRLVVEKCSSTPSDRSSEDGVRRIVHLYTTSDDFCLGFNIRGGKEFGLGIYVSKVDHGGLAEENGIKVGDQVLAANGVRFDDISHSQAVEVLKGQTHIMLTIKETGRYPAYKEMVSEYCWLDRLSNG

As to VELRRIPIADTHL [ADGRV1pbm], binding was put at a Kd of 1600 ± 300 nM.
